Test results as given in paper PMC4163472, “Crystal Structure of Deinococcus radiodurans RecQ Helicase Catalytic Core Domain: The Interdomain Flexibility” (BioMed Research International, 2014).

Biological target: T1, DrRecQ helicase catalytic core (Deinococcus radiodurans, UniProt Q9RUU2)
T1 construct: gene DR_1289; residues 5-517 seen in the complex (296-300 not visible); monomer
T1 sequence (Q9RUU2 1-517): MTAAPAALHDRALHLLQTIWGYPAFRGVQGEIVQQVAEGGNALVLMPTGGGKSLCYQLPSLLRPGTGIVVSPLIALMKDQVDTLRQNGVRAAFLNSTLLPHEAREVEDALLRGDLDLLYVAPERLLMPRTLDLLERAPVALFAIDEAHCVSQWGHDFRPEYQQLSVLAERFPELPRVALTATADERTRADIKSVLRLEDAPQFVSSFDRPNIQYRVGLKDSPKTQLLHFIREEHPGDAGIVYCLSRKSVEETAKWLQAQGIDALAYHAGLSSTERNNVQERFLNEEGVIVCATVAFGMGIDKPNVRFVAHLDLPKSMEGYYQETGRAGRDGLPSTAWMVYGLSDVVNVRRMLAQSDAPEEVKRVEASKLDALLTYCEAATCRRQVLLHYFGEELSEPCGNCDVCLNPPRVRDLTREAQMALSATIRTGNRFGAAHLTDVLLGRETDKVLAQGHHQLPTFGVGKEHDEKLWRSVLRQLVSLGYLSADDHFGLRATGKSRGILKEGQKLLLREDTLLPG
Test: X-ray crystallography, […] A
Format: binding
Details: crystallised in 0.1 M imidazole pH 7.2, 16% PEG 20K; nucleotide pocket of D1 domain (motifs 0 and I); no magnesium added; authors suggest ADP arose from ATP hydrolysed during crystallization

With `Nc1ncnc2c1ncn2[C@@H]1O[C@H](COP(=O)(O)OP(=O)(O)O)[C@@H](O)[C@H]1O` [ADP] the “X-ray crystallography, 2.9 A” value was “ADP is bound with extensive interactions with the protein”.
